Assay results: patent US20040035690A1, “Method and apparatus for chemical and biochemical reactions using photo-generated reagents” (The Regents Of The University Of Michigan, priority 1998, published 2004)
“Also recorded” adds a separate entry of the source. No end group written: not given here. dns = not defined here

Experiments:
mouse MAb DO-1 = assay: Oligopeptide immunoassay with MAb DO-1 and FITC-tagged secondary antibody; type: binding; conditions: hexapeptide microarray made with acid PGR, FITC-tagged rabbit anti-mouse IgG
Description: Solid substrates comprising oligopeptids were washed with PBS (phosphate-buffered saline, 25 mM NaH2PO4, 125 mM NaCl, pH 7.4), PBST (PBS, 0.2% (V/V) Tween 20), and PBS, respectively. Next, the solid substrates were then incubated with mouse MAb DO-1, which recognizes amino acid residue 20-25 of human tumor suppressor protein p53, in PBS at room temperature for 2 h. After washing with PBST and PBS, samples were treated with FITC-tagged secondary rabbit anti-mouse immunoglobulin (IgG) overnight at 4° C. Following washing with PBST and PBS, fluorescence of the solid substrate was measured.

[1] = Pb^2+ ion binding assay of oligopeptides on microarray (fluorescence); conditions: peptide microarray made with acid PGR; lead chloride in buffer
Description: (§1) 5-dimethylaminonaphthalene-1-sulfonyl chloride (dansyl chloride, dns) generated fluorescence was also performed by contacting the solid substrate with a mixture of dns (1.25 mmol) and triethylamine (0.125 mmol) in DMF for 4 h at room temperature. The fluorescence detection was done in the same manner as previously described for FAM with the exception that the excitation wavelength was 365 nm.
For the Pb^2+ ion assay, solid substrates comprising oligopeptides were washed with a buffer solution containing 100 mM HEPES (pH 7.1) and 10% methanol. Samples were then treated with 0.1 mM lead chloride in buffer overnight at room temperature. After washing with buffer solution and methanol the solid substrates were left to dry in an inert atmosphere in the dark.

[2] = As^3+ ion binding assay of oligopeptides on microarray (fluorescence); conditions: peptide microarray made with acid PGR; NaAsO2
Description: as §1
For the As^3+ ion assay, the assay was performed by the same procedure as the Pb^2+ assay but the buffer was 10 mM sodium acetate (pH 4.0) containing 100 mM NaCl and 0.1 mM sodium arsenite (NaAsO2) was the metal ion solution.

Row | Substance | fluorescence labeling / fluorescence intensity on binding of MAb DO-1 (mouse MAb DO-1) | fluorescence labeling / fluorescence intensity on Pb^2+ binding [1] | further results
1 | DSLGKL: hexapeptide analogue of SDLHKL on the microarray (DSLHKL; printed: Asp-Ser-Leu-His-Lys-Leu) | fluorescence intensity is not detected |  | 
2 | H2N-Glu-Glu-Glu-Glu (EEEE; printed: Glu-Glu-Glu-Glu) [tetrapeptide analogue on the microarray] |  | increase is fluorescence is not observed | 
3 | SDLHKL [hexapeptide, amino acid residue 20-25 of human p53 protein] | selective labeling |  | fluorescence labeling / fluorescence intensity on binding of MAb DO-1 (mouse MAb DO-1; listed as SDLHKL): fluorescence intensity is detected
4 | SGLHKL [hexapeptide analogue of SDLHKL on the microarray] | fluorescence intensity is not detected |  | 
5 | dns-Cys-Cys-Cys-Cys |  | increase is fluorescence is not observed | 
6 | dns-Glu-Cys-Glu-Glu |  | significant increase in fluorescence intensity; also recorded: selective labeling | 
7 | dns-Glu-Glu-Glu-Glu |  |  | fluorescence labeling / fluorescence intensity on As^3+ binding [2]: fluoresence intensity is greatest; also recorded: selective labeling
8 | dns-Gly-Gly-Gly-Gly (dns-GGGG; reading uncertain; also: printed as dns-Gly-Gly-Gly-Gly) [das-Gly-Gly-Gly-Gly, dansyl-labeled tetrapeptide] |  | increase is fluorescence is not observed | 
